Measured values published in patent US20230339981A1, “KRAS G12D MODULATING COMPOUNDS” (priority 2022, published 2023).

Legend:
GDP-loaded KRAS G12D = GDP-loaded KRAS G12D (Homo sapiens (Human), UniProt P01116, G12D); experiment: KRAS G12D (GDP) biochemical assay (TR-FRET probe displacement); assay type: binding; conditions: 2 hours
How it was run: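 TR-FRET probe displacement: 1:3 DMSO serial dilutions pre-incubated 30 min with GDP-bound KRAS G12D, followed by Eu-streptavidin/probe for 2 h at room temperature (Hepes pH 7.4, NaCl, MgCl2, Tween-20 buffer). IC50 defined as concentration halving TR-FRET ratio, from sigmoidal dose-response fit.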

AsPC-1 (KRAS G12D) cells = experiment: 3D cell viability assay (spheroids, CellTiter-Glo 3D); assay type: cell-based; conditions: Homo sapiens, ASPC1, 96 h, AsPC-1 cells, 3D spheroids, 4 days
How it was run: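 AsPC-1 cells (1000/well) in DMEM with 10% FBS formed spheroids over 3 days at 37 °C in ultra-low attachment plates, then were treated with 1:3 serial dilutions for 4 days. Viability read by CellTiter-Glo 3D luminescence; EC50 as concentration giving 50% signal decrease, sigmoidal fit.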

GP2D (KRAS G12D) cells = experiment: 2D cell viability assay (CellTiter-Glo); assay type: cell-based; conditions: GP2d, 96 h, 4 days
How it was run: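 Viability was read by CellTiter-Glo after 4 days at 37 °C of 2D culture of KRAS G12D GP2D cells (1000/well, RPMI, 10% FBS) on pre-spotted threefold compound dilutions. EC50 was fitted with a sigmoidal dose-response model as the point of half-maximal luminescence loss.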

GDP-loaded KRAS G12D, sequence (P01116-2 other isoform, or with tags, fused parts or gaps G12D): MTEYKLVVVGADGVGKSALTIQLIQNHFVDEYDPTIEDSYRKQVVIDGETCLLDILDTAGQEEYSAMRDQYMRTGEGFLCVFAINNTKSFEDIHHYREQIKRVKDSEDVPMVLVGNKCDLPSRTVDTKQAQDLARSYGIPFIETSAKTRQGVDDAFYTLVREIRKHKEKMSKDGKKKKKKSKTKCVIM

C#Cc1c(F)ccc2cccc(-c3nc4c5c(nc(OC[C@@]67CCCN6C[C@H](F)C7)nc5c3F)N3C[C@H]5CC[C@H](N5)[C@H]3CCO4)c12 [Example 124, (6aR,7S,10R)-2-(8-ethynyl-7-fluoronaphthalen-1-yl)-1-fluoro-13-(((2R,7aS)-2-fluorotetrahydro-1H-pyrrolizin-7a(5H)-yl)methoxy)-5,6,6a,7,8,9,10,11-octahydro-4-oxa-3,11a,12,14,15-pentaaza-7,10-methanocyclohepta[4,5]cycloocta[1,2,3-de]naphthalene]
IC50 (GDP-loaded KRAS G12D): 0.5 nM
EC50 (AsPC-1 (KRAS G12D) cells): 81 nM
EC50 (GP2D (KRAS G12D) cells): 26 nM

Oc1cc(-c2nc3c4c(nc(OC[C@@]56CCCN5C[C@H](F)C6)nc4c2F)N2C[C@H]4CC[C@H](N4)[C@H]2CO3)c2c(Cl)cccc2c1 [Example 17, 5-chloro-4-((5aS,6S,9R)-1-fluoro-12-(((2R,7aS)-2-fluorotetrahydro-1H-pyrrolizin-7a(5H)-yl)methoxy)-5a,6,7,8,9,10-hexahydro-5H-4-oxa-3,10a,11,13,14-pentaaza-6,9-methanonaphtho[1,8-ab]heptalen-2-yl)naphthalen-2-ol]
IC50 (GDP-loaded KRAS G12D): 0.4 nM
EC50 (AsPC-1 (KRAS G12D) cells): 180 nM
EC50 (GP2D (KRAS G12D) cells): 49 nM

C#Cc1c(F)ccc2cc(O)cc(-c3nc4c5c(nc(OC[C@@]67CCCN6[C@H](COC(C(F)(F)F)(C(F)(F)F)C(F)(F)F)CC7)nc5c3F)N3C[C@H]5CC[C@H](N5)[C@H]3CCC4)c12 [Example 181, 5-ethynyl-6-fluoro-4-((6aR,7S,10R)-1-fluoro-13-(((3S,7aS)-3-(((1,1,1,3,3,3-hexafluoro-2-(trifluoromethyl)propan-2-yl)oxy)methyl)tetrahydro-1H-pyrrolizin-7a(5H)-yl)methoxy)-5,6,6a,7,8,9,10,11-octahydro-4H-3,11a,12,14,15-pentaaza-7,10-methanocyclohepta[4,5]cycloocta[1,2,3-de]naphthalen-2-yl)naphthalen-2-ol]
IC50 (GDP-loaded KRAS G12D): 0.5 nM
EC50 (AsPC-1 (KRAS G12D) cells): 6.9 nM
EC50 (GP2D (KRAS G12D) cells): 0.3 nM

Oc1cc(-c2nc3c4c(nc(OC[C@@]56CCCN5C[C@H](F)C6)nc4c2F)N2C[C@H]4CC[C@H](N4)[C@H]2CO3)c2c(OC3CC3)c(F)ccc2c1 [Example 42, 5-cyclopropoxy-6-fluoro-4-((5aS,6S,9R)-1-fluoro-12-(((2R,7aS)-2-fluorotetrahydro-1H-pyrrolizin-7a(5H)-yl)methoxy)-5a,6,7,8,9,10-hexahydro-5H-4-oxa-3,10a,11,13,14-pentaaza-6,9-methanonaphtho[1,8-ab]heptalen-2-yl)naphthalen-2-ol]
IC50 (GDP-loaded KRAS G12D): 2 nM
EC50 (AsPC-1 (KRAS G12D) cells): 95 nM
EC50 (GP2D (KRAS G12D) cells): 28 nM

C#Cc1c(F)ccc2cc(O)cc(-c3nc4c5c(nc(OC[C@@]67CCCN6C[C@H](F)C7)nc5c3F)N3C[C@H]5CC[C@H](N5)[C@H]3CC4(F)F)c12 [Example 97, 5-ethynyl-6-fluoro-4-((5aR,6S,9R)-1,4,4-trifluoro-12-(((2R,7aS)-2-fluorotetrahydro-1H-pyrrolizin-7a(5H)-yl)methoxy)-4,5,5a,6,7,8,9,10-octahydro-3,10a,11,13,14-pentaaza-6,9-methanonaphtho[1,8-ab]heptalen-2-yl)naphthalen-2-ol]
IC50 (GDP-loaded KRAS G12D): 0.2 nM
EC50 (AsPC-1 (KRAS G12D) cells): 55 nM
EC50 (GP2D (KRAS G12D) cells): 7.7 nM

C#Cc1c(F)ccc2cc(O)cc(-c3nc4c5c(nc(OC[C@@]67CCCN6CC(OC(F)(F)F)C7)nc5c3F)N3C[C@H]5CC[C@H](N5)[C@H]3CC4)c12 (stereo partly drawn) [Example 139, 5-ethynyl-6-fluoro-4-((5aR,6S,9R)-1-fluoro-12-((cis-2-(trifluoromethoxy)tetrahydro-1H-pyrrolizin-7a(5H)-yl)methoxy)-4,5,5a,6,7,8,9,10-octahydro-3,10a,11,13,14-pentaaza-6,9-methanonaphtho[1,8-ab]heptalen-2-yl)naphthalen-2-ol]
IC50 (GDP-loaded KRAS G12D): 0.1 nM
EC50 (AsPC-1 (KRAS G12D) cells): 4.2 nM
EC50 (GP2D (KRAS G12D) cells): 0.6 nM

C#Cc1c(F)ccc2cc(O)cc(-c3nc4c5c(nc(OC[C@@]67CCCN6C[C@H](F)C7)nc5c3F)N3C[C@H]5CC[C@H](N5)[C@H]3CCO4)c12 [Example 123, 5-ethynyl-6-fluoro-4-((6aR,7S,10R)-1-fluoro-13-(((2R,7aS)-2-fluorotetrahydro-1H-pyrrolizin-7a(5H)-yl)methoxy)-5,6,6a,7,8,9,10,11-octahydro-4-oxa-3,11a,12,14,15-pentaaza-7,10-methanocyclohepta[4,5]cycloocta[1,2,3-de]naphthalen-2-yl)naphthalen-2-ol]
IC50 (GDP-loaded KRAS G12D): < 0.1 nM
EC50 (AsPC-1 (KRAS G12D) cells): 3 nM
EC50 (GP2D (KRAS G12D) cells): 0.5 nM

C#Cc1c(F)ccc2cc(O)cc(-c3cc4c5c(nc(OC[C@@]67CCCN6C[C@H](F)C7)nc5c3F)N3C[C@H]5CC[C@H](N5)[C@H]3CC4)c12 [Example 52, 5-ethynyl-6-fluoro-4-((1S,4R,14aR)-10-fluoro-8-(((2R,7aS)-2-fluorotetrahydro-1H-pyrrolizin-7a(5H)-yl)methoxy)-1,2,3,4,5,13,14,14a-octahydro-1,4-epiminoazepino[1′,2′:1,7]azepino[2,3,4-de]quinazolin-11-yl)naphthalen-2-ol]
IC50 (GDP-loaded KRAS G12D): 0.1 nM
EC50 (AsPC-1 (KRAS G12D) cells): 7 nM
EC50 (GP2D (KRAS G12D) cells): 1 nM

C#Cc1c(F)ccc2cccc(-c3nc4c5c(nc(OC[C@@]67C[C@@H](F)CN6CC6(CC6)C7)nc5c3F)N3C[C@H]5CC[C@H](N5)[C@H]3CC4)c12 [Example 113, (5aR,6S,9R)-2-(8-ethynyl-7-fluoronaphthalen-1-yl)-1-fluoro-12-(((6′R,7a′R)-6′-fluorodihydro-1′H,3′H-spiro[cyclopropane-1,2′-pyrrolizin]-7a′(5′H)-yl)methoxy)-4,5,5a,6,7,8,9,10-octahydro-3,10a,11,13,14-pentaaza-6,9-methanonaphtho[1,8-ab]heptalene]
IC50 (GDP-loaded KRAS G12D): 0.2 nM
EC50 (AsPC-1 (KRAS G12D) cells): 57 nM
EC50 (GP2D (KRAS G12D) cells): 7.3 nM

C#Cc1c(F)ccc2cc(O)cc(-c3nc4c5c(nc(OC[C@@]67CCCN6C[C@H](F)C7)nc5c3F)N3C[C@H]5CC[C@H](N5)[C@H]3CC4)c12 [Example 22, 5-ethynyl-6-fluoro-4-((5aR,6S,9R)-1-fluoro-12-(((2R,7aS)-2-fluorotetrahydro-1H-pyrrolizin-7a(5H)-yl)methoxy)-4,5,5a,6,7,8,9,10-octahydro-3,10a,11,13,14-pentaaza-6,9-methanonaphtho[1,8-ab]heptalen-2-yl)naphthalen-2-ol]
IC50 (GDP-loaded KRAS G12D): 0.1 nM
EC50 (AsPC-1 (KRAS G12D) cells): 2 nM
EC50 (GP2D (KRAS G12D) cells): 0.6 nM

Oc1cc(-c2nc3c4c(nc(OC[C@@]56CCCN5C[C@H](F)C6)nc4c2F)N2C[C@H]4CC[C@H](N4)[C@H]2CC3)c2c(F)c(Cl)ccc2c1 [Example 40, 6-chloro-5-fluoro-4-((5aR,6S,9R)-1-fluoro-12-(((2R,7aS)-2-fluorotetrahydro-1H-pyrrolizin-7a(5H)-yl)methoxy)-4,5,5a,6,7,8,9,10-octahydro-3,10a,11,13,14-pentaaza-6,9-methanonaphtho[1,8-ab]heptalen-2-yl)naphthalen-2-ol]
IC50 (GDP-loaded KRAS G12D): 2 nM
EC50 (AsPC-1 (KRAS G12D) cells): 74 nM
EC50 (GP2D (KRAS G12D) cells): 19 nM

C#Cc1c(F)ccc2cc(O)cc(-c3nc4c5c(nc(OCC6(CN7CCC(OC(F)(F)F)CC7)CC6)nc5c3F)N3C[C@H]5CC[C@H](N5)[C@H]3CCC4)c12 [Example 161, 5-ethynyl-6-fluoro-4-((6aR,7S,10R)-1-fluoro-13-((1-((4-(trifluoromethoxy)piperidin-1-yl)methyl)cyclopropyl)methoxy)-5,6,6a,7,8,9,10,11-octahydro-4H-3,11a,12,14,15-pentaaza-7,10-methanocyclohepta[4,5]cycloocta[1,2,3-de]naphthalen-2-yl)naphthalen-2-ol]
IC50 (GDP-loaded KRAS G12D): 0.3 nM
EC50 (AsPC-1 (KRAS G12D) cells): 23 nM
EC50 (GP2D (KRAS G12D) cells): 0.3 nM

C#Cc1c(F)ccc2cc(O)cc(-c3nc4c5c(nc(OC[C@@]67CCCN6C[C@@H](OC(C(F)(F)F)(C(F)(F)F)C(F)(F)F)C7)nc5c3F)N3C[C@H]5CC[C@H](N5)[C@H]3CC4)c12 (stereo in doubt) [Example 134, 5-ethynyl-6-fluoro-4-((5aR,6S,9R)-1-fluoro-12-((cis-2-((1,1,1,3,3,3-hexafluoro-2-(trifluoromethyl)propan-2-yl)oxy)tetrahydro-1H-pyrrolizin-7a(5H)-yl)methoxy)-4,5,5a,6,7,8,9,10-octahydro-3,10a,11,13,14-pentaaza-6,9-methanonaphtho[1,8-ab]heptalen-2-yl)naphthalen-2-ol]
IC50 (GDP-loaded KRAS G12D): 0.5 nM
EC50 (AsPC-1 (KRAS G12D) cells): 31 nM
EC50 (GP2D (KRAS G12D) cells): 2.2 nM

C#Cc1c(F)ccc2cccc(-c3nc4c5c(nc(OC[C@@]67CCCN6[C@H](COC(C6CC6)C(F)(F)F)CC7)nc5c3F)N3C[C@H]5CC[C@H](N5)[C@H]3CC4)c12 (stereo partly drawn) [Example 111, (5aR,6S,9R)-12-(((3S,7aS)-3-((1-cyclopropyl-2,2,2-trifluoroethoxy)methyl)tetrahydro-1H-pyrrolizin-7a(5H)-yl)methoxy)-2-(8-ethynyl-7-fluoronaphthalen-1-yl)-1-fluoro-4,5,5a,6,7,8,9,10-octahydro-3,10a,11,13,14-pentaaza-6,9-methanonaphtho[1,8-ab]heptalene]
IC50 (GDP-loaded KRAS G12D): 0.7 nM
EC50 (AsPC-1 (KRAS G12D) cells): 360 nM
EC50 (GP2D (KRAS G12D) cells): 69.9 nM
